PubChem BioAssay (NCI)
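Assay format: 96-well plates, 48-hour exposure. Definition used: TGI = concentration required for complete inhibition of growth.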

Experiments:
Experiment in all cases: inhibition of tumour cell growth, NCI panel, 48 h
[1] = system: OVCAR-5 ovarian
[2] = system: NCI-H522 lung
[3] = system: NCI-H23 lung
[4] = system: HT29 colon
[5] = system: A549 NSCLC
[6] = system: IGROV1 ovarian
[7] = system: HCT-116 colon
[8] = system: SW-620 colon
[9] = system: SNB-19 CNS
[10] = system: SK-OV-3 ovarian
[11] = system: T-47D breast
[12] = system: COLO 205 colon
[13] = system: MCF7 breast
[14] = system: HOP-62 NSCLC
[15] = system: TK-10 renal
[16] = system: HS 578T breast
[17] = system: PC-3 prostate
[18] = system: KM12 colon
[19] = system: HCT-15 colon
[20] = system: M14 melanoma
[21] = system: DU-145 prostate
[22] = system: SF-295 CNS
[23] = system: MALME-3M melanoma
[24] = system: SF-268 CNS
[25] = system: SK-MEL-5 melanoma
[26] = system: HCC-2998 colon
[27] = system: SK-MEL-28 melanoma
[28] = system: NCI-H226 lung
[29] = system: BT-549 breast
[30] = system: CCRF-CEM leukemia
[31] = system: HL-60(TB) leukemia
[32] = system: OVCAR-8 ovarian
[33] = system: NCI-H460 lung
[34] = system: LOX IMVI melanoma
[35] = system: NCI/ADR-RES ovarian
[36] = system: MDA-N
[37] = system: MDA-MB-231 breast
[38] = system: U251 CNS
[39] = system: SF-539 CNS
[40] = system: MOLT-4 leukemia
[41] = system: K-562 leukemia
[42] = system: UACC-62 melanoma
[43] = system: OVCAR-4 ovarian
[44] = system: CAKI-1 renal
[45] = system: A498 renal
[46] = system: UO-31 renal
[47] = system: UACC-257 melanoma
[48] = system: 786-0 renal
[49] = system: RXF 393 renal
[50] = system: SR leukemia
[51] = system: ACHN renal
[52] = system: SN12C renal
[53] = system: MDA-MB-435
[54] = system: OVCAR-3 ovarian
[55] = system: SK-MEL-2 melanoma
[56] = system: EKVX NSCLC
[57] = system: HOP-92 NSCLC
[58] = system: RPMI-8226 leukemia
[59] = system: SNB-75 CNS

Structure (SMILES): C=CCOC1(CC=C)C(=O)OC2C(O)COC21O (stereo not given)
- TGI [1]: > 100 µM
- TGI [2]: > 100 µM
- TGI [3]: > 100 µM
- TGI [4]: > 100 µM
- TGI [5]: > 100 µM
- TGI [6]: > 100 µM
- TGI [7]: > 100 µM
- TGI [8]: > 100 µM
- TGI [9]: > 100 µM
- TGI [10]: > 100 µM
- TGI [11]: > 100 µM
- TGI [12]: > 100 µM
- TGI [13]: > 100 µM
- TGI [14]: > 100 µM
- TGI [15]: > 100 µM
- TGI [16]: > 100 µM
- TGI [17]: > 100 µM
- TGI [18]: > 100 µM
- TGI [19]: > 100 µM
- TGI [20]: > 100 µM
- TGI [21]: > 100 µM
- TGI [22]: > 100 µM
- TGI [23]: > 100 µM
- TGI [24]: > 100 µM
- TGI [25]: > 100 µM
- TGI [26]: > 100 µM
- TGI [27]: > 100 µM
- TGI [28]: > 100 µM
- TGI [29]: > 100 µM
- TGI [30]: > 100 µM
- TGI [31]: > 100 µM
- TGI [32]: > 100 µM
- TGI [33]: > 100 µM
- TGI [34]: > 100 µM
- TGI [35]: > 100 µM
- TGI [36]: > 100 µM
- TGI [37]: > 100 µM
- TGI [38]: > 100 µM
- TGI [39]: > 100 µM
- TGI [40]: > 100 µM
- TGI [41]: > 100 µM
- TGI [42]: > 100 µM
- TGI [43]: > 100 µM
- TGI [44]: > 100 µM
- TGI [45]: > 100 µM
- TGI [46]: > 100 µM
- TGI [47]: > 100 µM
- TGI [48]: > 100 µM
- TGI [49]: > 100 µM
- TGI [50]: > 100 µM
- TGI [51]: > 100 µM
- TGI [52]: > 100 µM
- TGI [53]: > 100 µM
- TGI [54]: > 100 µM
- TGI [55]: > 100 µM
- TGI [56]: > 100 µM

Structure (SMILES): COc1cc(S(=O)(=O)Nc2ccc(-c3csc(/N=C\c4ccccc4)n3)cc2)ccc1Cl
- TGI [1]: > 100 µM
- TGI [2]: > 100 µM
- TGI [3]: > 100 µM
- TGI [4]: > 100 µM
- TGI [5]: > 100 µM
- TGI [6]: > 100 µM
- TGI [7]: > 100 µM
- TGI [8]: > 100 µM
- TGI [9]: > 100 µM
- TGI [57]: > 100 µM
- TGI [10]: > 100 µM
- TGI [11]: > 100 µM
- TGI [12]: > 100 µM
- TGI [13]: 49.9 µM
- TGI [14]: > 100 µM
- TGI [16]: > 100 µM
- TGI [17]: > 100 µM
- TGI [18]: > 100 µM
- TGI [19]: > 100 µM
- TGI [20]: > 100 µM
- TGI [21]: > 100 µM
- TGI [22]: > 100 µM
- TGI [23]: > 100 µM
- TGI [24]: > 100 µM
- TGI [25]: > 100 µM
- TGI [27]: > 100 µM
- TGI [28]: > 100 µM
- TGI [29]: > 100 µM
- TGI [30]: > 100 µM
- TGI [58]: > 100 µM
- TGI [31]: > 100 µM
- TGI [32]: > 100 µM
- TGI [34]: > 100 µM
- TGI [35]: > 100 µM
- TGI [36]: > 100 µM
- TGI [37]: > 100 µM
- TGI [39]: > 100 µM
- TGI [40]: 52.1 µM
- TGI [41]: > 100 µM
- TGI [42]: > 100 µM
- TGI [43]: > 100 µM
- TGI [44]: > 100 µM
- TGI [45]: > 100 µM
- TGI [46]: > 100 µM
- TGI [48]: > 100 µM
- TGI [49]: > 100 µM
- TGI [50]: > 100 µM
- TGI [51]: > 100 µM
- TGI [52]: > 100 µM
- TGI [53]: > 100 µM
- TGI [54]: > 100 µM
- TGI [59]: > 100 µM
- TGI [55]: 60.6 µM
- TGI [56]: > 100 µM
